Measurements reported in patent US5874086A, “Synthesis and use for the treatment of osteoporosis” (Syntex (U.S.A,), Inc., priority 1994, dated 1999).
Where no end group is shown, it is not given here. [ ]: non-standard residue; d: D form. The star is where a group is joined. hSer(lactone) = O=C1OCC[C@@H]1N*

B1: bPTH(1-84): bovine parathyroid hormone, single polypeptide chain of 84 amino acid residues (protein, UniProt P01268 32-115, looked up)
Parathyroid hormone: AVSEIQFMHNLGKHLSSMERVEWLRKKLQDVHNFVALGASIAYRDGSSQRPRKKEDNVLVESHQKSLGEADKADVDVLIKAKPQ
modifications: Parathyroid hormone
notes: bovine parathyroid hormone, single polypeptide chain of 84 amino acid residues

Tests used:
ovariectomized rats = assay: Effect on bone mass (bone calcium) in ovariectomized rats; type: in vivo, Sprague-Dawley female rats
Experimental: Bone Dis. 5:177 181 (1984).
Adult Sprague-Dawley female rats were acclimatized, weight grouped (n=9, 10 or 12), and subjected to bilateral ovariectomy (OVX) or sham surgery. Dosing was initiated 17 days after surgery and continued for 20 days. Test compound was administered subcutaneously once a day in 2% rat serum/saline vehicle.
After 20 days of dosing, the rats were sacrificed and the right femurs excised. The femurs were cut in half and the distal half femurs (DHF) were further separated into trabecular bone (TB) and cortical bone (CB) by drilling out the trabeculae. Calcium was extracted and measured by Calcette calcium analyzer and expressed as mean bone Ca in mg/DHF/100 g body weight.
The two sample t-test was used to compare OVX and sham groups. One-way ANOVA was used to compare OVX groups, followed by Fisher's LSD multiple comparison to compare each treatment group to vehicle.

[1] = system: normal and osteoporotic adult female rats; conditions: daily subcutaneous doses; cited from earlier work
[2] = system: ovariectomized adult female rats; conditions: daily subcutaneous injections; cited from earlier work
healthy adult male rats = conditions: daily subcutaneous injections for 12 days; cited from earlier work
[3] = 80 μg/kg/day subcutaneously once a day, 20 days of dosing

Molecule | Total Bone Calcium (% increase over OVX) (ovariectomized rats; 40 ug/kg/day, 5 d of dosing) [%] | Total Bone Calcium (% increase over OVX) (ovariectomized rats; 40 ug/kg/day, 10 d of dosing) [%] | Total Bone Calcium (% increase over OVX) (ovariectomized rats; [3]) | Whole body calcium and ash weight of individual bones [1] | also measured
AVSEHQLLHDKGKSIQDLRRRELLEKLLEKLHTX (AVSEHQLLHDKGKSIQDLRRRELLEKLLEKLHT[hSer(lactone)]) [Compound 4, X = hSerlac; homoserine lactone peptide] | 55 | 79 | 88-114% |  | Total Bone Calcium (% increase over OVX) (ovariectomized rats; 40 ug/kg/day, 20 d of dosing): 79-105%
AVSEHQLLHDKGKSIQDLRRRELLEKLLEKLHTA-OH [Compound 2] |  |  | 66-114% |  | Trabecular Bone Calcium (% increase over OVX) (ovariectomized rats; [3]): 87-102%
AVSEHQLLHDKGKSIQDLRRRELLEKLLEKLHTX [Compound 49] |  | 93 |  |  | 
AVSEHQLLHDKGKSIQDLRRRELLEKLLEKLP-NH2 (AVSEHQLLHDKGKSIQDLRRRELLEKLLEKLP-NH2) [Compound 42] | 60 |  |  |  | 
hPTH(1-34): N-terminal (1-34) fragment of human parathyroid hormone (SVSEIQLMHNLGKHLNSMERVEWLRKKLQDVHNF; Parathyroid hormone; UniProt P01270 32-65, looked up, fragment) |  |  |  | increased | Loss of trabecular bone after ovariectomy [2]: completely reversed the loss of trabecular bone; Trabecular and cortical bone calcium and dry weight (healthy adult male rats): increased
B1 |  |  |  | increased | 
